System: slime and deposits in paper machine white water
Experiment: Slime and deposit formation in white water tanks, same test record as example 10 (example 12, lignin plus small quantity of biocide)
Parameters: species or system bacteria
Excerpt: The white water originated from the white water I circuit of a paper machine which produces wood-free paper with carbonate filler, used painted rejects and starch for the production of the stock and runs at a slightly alkaline pH. The white water was sampled after a re-start, before any slime combating systems were used. […] Seven tanks were filled with the white water up to the 5-litre mark, the magnetic agitators were switched on, as well as the thermostatically controlled heating systems which were set to 36° C. Weighed slime measuring boards were fully immersed in the liquid. The microbial activity in the test tanks was checked by plating out on bacterial count-Agar from the company of Merck. The additions to the slime check to be compared were diluted in a suitable way and a certain quantity was added to each test tank. After 72 hours the bacterial counts were determined again and the measuring boards covered in slime were carefully weighed. After the measurements after 72 hours the slime measur8ing boards were dried at 105° C. and again weighed in order to determine the dry weight of the stored material. The dried material was then removed from the boards and incinerated in a furnace in porcelain crucibles at 550° C. The ash was weighed back in order to measure the percentage of mineral substances in the original deposits. The whole experiment was repeated with various concentrations of the individual slime combating products.
The same test record as in example 10 was followed, however using the following products

[1] = 70 ppm active (combination 50 + 20), 72 hrs

SMILES: O=[N+]([O-])C(Br)(CO)CO [bromiumnitropropane diol, 2-bromium-2-nitropropane-1,3-diol]
- Ash content in deposits in % of the solids content of the control [1]: 17%
- Dry weight of the deposit [1]: 1.026 g
- Moist weight of the deposit [1]: 1.020 g
- Solids content in deposit [1]: 12%
- Solids content in deposits in % of the control (70 ppm active (combination 50 + 20), 72 hrs, control = 100): 23%
- Bacterial count after 72 hrs (addition (active) 70 ppm per volume (combination 50 + 20 ppm), white water 4.7 g/l solids, start count 4.2 × 10^5): 8.1 × 10^4 CFU/ml
